Here are results for one compound from paper PMC6527222 (PLoS ONE, 2019).

The subject of one data set is A549, lung tumor, cells. To be noted: cited from earlier work.
Data set [1] concerns JB6 P+ cells. The experiment in a line: SRB cytotoxicity assay. The format is cell-based, mouse. To be noted: 72 hr; NT = no toxicity at any concentration tested. How it is done:
96-well plates were seeded with 3x10^3 JB6 P+ cells per well and allowed to attach overnight. […] Cell viability was determined using Sulforhodamine B (SRB) assay from Sigma-Aldrich according to the manufacturer’s protocol. Cellular protein content was measured using a Bio-Tek μQuant plate reader with KCJunior software.
Concentration-response curves were normalized so that the EGF positive control on each 96-well plate was set to 100% and the control wells on each plate were set to 0%. Toxicity assays (SRB and MTS) were normalized so that the control on each plate represented 100% viability. Normalization allowed for comparison of data over a range of JB6 P+ cell cultures, passages, and experimental time for the shRNA studies, as well as control for variation in the EGF response, and importantly allowed for a direct comparison to all concentration-response experiments including the toxicity assays. […] All group sizes were determined via previous studies to provide statistically meaningful data. In the soft agar assays, key results were repeated with different JB6 P+ cells to confirm the results. Similarly, the shRNA studies were conducted with three independent concentration-response curves with different JB6 P+ cell stocks. […] For two sample comparisons a t-test was utilized, and when comparing multiple samples a One-, Two-, or Three-Factor ANOVA followed by Tukey-Kramer post hoc test was utilized depending on the data. For all tests, statistical difference was donated when p < 0.05.
The IΔ2*PSD is expressed in x-axis units (log [M]) as is an IC50 and it represents the first concentration where it is expected to observe a statistical decrease in the measured signal.
Using the formula provided by GraphPad Prism or a straight line for the point-to-point graphs, the X-axis value for point Y was determined. The error is ascribed to this measurement via adding and subtracting the pooled standard deviation (PSD) to/from point Y generating point Y ± PSD. The two new points were then transformed to the X-axis units as was done for point Y creating an asymmetric error in sigmoidal plots. When the error was asymmetric, the larger error value was chosen to err on the conservative side. See S1 Fig for a pictoral explination of the method. The data is presented as IΔ2*PSD ± error.

For the next data set, the system named is β2-AR. More on the design: method as in as printed in each cell (43-46, 48-54, 56-58). To be noted: as described in the references; ref (43-46, 48-54, 56-58); cited from earlier work.
In data set [2] the test system is JB6 P+ cells. Conditions: previous data, cited from earlier work.
The subject of data set [3] is JB6 P+ cells. As to the kind of experiment: Modified seven-day soft agar assay in shRNA lentivirus infected JB6 P+ cells. In kind it is cell-based, mouse. Conditions: for IC50: Mus musculus. How it is done: Knockdown of the β2-AR via the Adrb2 shRNA lentivirus was examined via seeding 1x10^4 JB6 P+ cells/well of a 6-well plate in standard growth media (see above). 24 hr after seeding, the growth media was removed from attached cells and replaced with 2 ml EMEM containing 4% heat-inactivated FBS without antibiotics and […] polybrene. 1.5 ml lentiviral shRNA stocks of either Adrb2 or scrambled control were added to appropriate wells and plates were centrifuged at 1,000 g at room temperature for 1 hr. Following centrifugation, media was replaced with 3 ml EMEM lacking antibiotics and grown at 37°C. After 2, 3, 7, and 10 days of growth, cells were trypsinized, collected and centrifuged at 300g for 5 min. Cells were washed with 1 ml PBS, and RNA was extracted using Qiagen’s RNeasy Mini kit. RNA was reverse transcribed into cDNA using Applied Biosystems cDNA reverse transcription kit (Invitrogen) and stored at -20°C for future use.
β2-AR shRNA lentivirus infected JB6 P+ cells were utilized in modified anchorage-independent growth assays in soft agar. The procedure was shortened to seven days because the shRNA-mediated β2-AR knockdown persisted up to ten days. Infection of the cells occurred as described in the verification of effective shRNA-mediated β2-AR knockdown, and the cells were grown for three days, then they were added to the agar as described in the anchorage-independent growth assays in soft agar section. The colonies were counted after seven days in culture; thus, matching the ten days of β2-AR knockdown.

In another data set the target is α1D-AR. Conditions: read-out: Kd towards the α1D-AR; cited from earlier work.
The subject of data set [4] is JB6 P+ cells. The experiment in a line: Soft agar assay with competitive adrenergic receptor antagonists. The format is cell-based. To be noted: Mus musculus, alone. How it is done:
Ten ng/mL EGF was used to promote the anchorage-independent growth of JB6 cells. […] Plates were incubated at 37°C, 5% CO2 for 14 days. Colonies with greater than ten cells were counted manually under a microscope. Antagonists identified in our assays as ineffective at blocking EGF-mediated transformation of JB6 P+ cells yet displaying no or little toxicity were used as competitive antagonists towards carvedilol-mediated prevention of EGF-induced transformation of JB6 P+ cells.

Values joined by “and” are separate entries in the source; they are usually repeats but may differ in a detail not shown here. Equal entries are not always repeated. Where two headings read alike, the source gives them in different places.

Usually Kd stands for the concentration at which binding is half-saturated. On to `COc1ccccc1OCCNCC(O)COc1cccc2[nH]c3ccccc3c12` (stereo not drawn) [Carvedilol], for which, in the data set on A549, lung tumor, cells, the “reducing the growth of injected A549 cells in vivo, words” value is given as “not effective”. In addition, in the data set with JB6 P+ cells [1], the “SRB Assay Log IΔ2*PSD” value was -4.89 ± 0.09 log [M]. In addition, the “Pharmacological property at β2-AR” value with β2-AR is “Biased agonist/ partial ERK agonist [43, 44]”. For the same compound, the “effect on EGF-mediated transformation of JB6 P+ cells, words” value with JB6 P+ cells [2] was “completely prevents”. For the same compound, the IC50 with JB6 P+ cells [2] (read-out: IC50, inhibition of EGF-mediated transformation) is 782 nM; in the data set on JB6 P+ cells [3] (168 h, independent experiments 1-3, seven days, read-out: ardb2 shRNA Mean logIC50 (converted)), 718 nM; in the data set on JB6 P+ cells [3] (168 h, scrambled control shRNA, three experiments combined (Fig 6B), seven days, read-out: LogIC50 (converted)) it was 813 nM; with JB6 P+ cells [3] (168 h, β2-AR-targeted shRNA, three experiments combined (Fig 6B), seven days, read-out: LogIC50 (converted)) it was 1000 nM; in the data set with JB6 P+ cells [3] (line Mean, read-out: Scrambled shRNA Mean logIC50, mean of three experiments (converted)), 714 nM; with JB6 P+ cells [3] (line Mean, read-out: ardb2 shRNA Mean logIC50, mean of three experiments (converted)), 979 nM. Also, the figures for the IC50 in the data set with JB6 P+ cells [4] (CGP 12177 experiment (Fig 5B)), with JB6 P+ cells [4] (HEAT HCl experiment (Fig 5C)) and in the data set with JB6 P+ cells [4] (nadolol experiment (Fig 5A)) were 331 nM, 275 nM and 282 nM, respectively. Further, the “ardb2 shRNA Mean logIC50” value in the data set on JB6 P+ cells [3] (independent experiments 1-3, seven days) was -5.965 log [M] and -5.917 log [M]. Further, the Kd on α1D-AR is 1.2 nM.
